{"source": "paper PMC8486872", "about": "“A rational blueprint for the design of chemically-controlled protein switches” (Nature Communications, 2021)", "tested_on": "SEAP expression in HEK293T cells", "assay": "MISO designer cells (CDH-1 + CDH-3 dual switches)", "type": "cell-based", "parameters": "SEAP / Bottom (best-fit value) / Top (best-fit value) / Span (best-fit value): unit not given here", "settings": "for logIC50 (best-fit value): drug in nM; for SEAP, Drug-3 turn OFF CDH-3-TF (with 1 µM Drug-1): Fig S13f; for SEAP, Drug-3 turn OFF CDH-3-GEMS (+1 µM Drug-3): Fig S13g, representative data; for pIC50: Homo sapiens, HEK-293T, read-out: IC50 (best-fit value)", "description": "Fig. 5 Orthogonal chemical switches enable implementation of multi-input multi-output control modes in mammalian cells. a Scheme of multi-inputs multi-outputs (MIMO) designer cells where two drugs control two different outputs. b, c Cells were co-transfected with AIR-1/2-GEMS and CDH-3-TF regulate SEAP and Luciferase expression, respectively. […] AIR-1/2-GEMS coupled with SEAP expression circuits were co-transfected with CDH-1/2-TF circuits which control the Luciferase production. Respective drug concentrations ranged from 0.001 nM to 1 µM. […]\nWe then engineered MISO cells (Fig. 5d) with CDH-1-TF and CDH-3-TF dual switches (Fig. 5e) that encode OFF behaviors controlled by Drug-1 and Drug-3. […] This output behavior is distinct from the typical SISO systems which only show two persistent states (high, low) (Fig. 2c, f). […] This type of output in biological systems could be utilized to produce graded levels of responses that are robust to minor oscillations in drug concentrations, and could be used to dissect fundamental biological processes but also to provide persistent response levels in translational applications.\n1-TF and CDH-3-TF circuits. Drug-1 concentrations ranged from 0.001 nM to 1 µM (left) and 1 µM Drug-1 with serial diluted Drug-3 from 0.001 nM to 1 µM (right). g) Quantification of SEAP activity controlled […]\nby CDH-1-GEMS and CDH-3-GEMS circuits. […]\nLuciferase production (l). b-k) Each data point represents the mean of n = 3 biological replicates, and the dose-dependent curve were fitted using four-parameter nonlinear regression.", "key": {"[1]": {"settings": "Fig5e SEAP, CDH-3-TF, four-parameter fit"}, "[2]": {"settings": "Fig5f SEAP, CDH-3-GEMS, three-parameter fit"}}, "note": "pIC50: −log10 of the molar value. Several values for one entry are separate records, joined by “and”; a condition that tells them apart may be missing. Identical values can stand only once. Like-named read-outs stand apart in the source and are kept apart here.", "data": [{"compound": "COc1cc2c(cc1OC(C)C)[C@H](c1ccc(Cl)cc1)N(c1ccc(N(C)C[C@H]3CC[C@H](N4CCN(C)C(=O)C4)CC3)cc1)C(=O)C2", "note": "[Drug-3, NVP-CGM097]", "values": [{"measurement": "Bottom (best-fit value)", "setting": "[1]", "result": 17.47}, {"measurement": "HillSlope (best-fit value)", "setting": "[1]", "result": -0.6148}, {"measurement": "Span (best-fit value)", "setting": "[1]", "result": 17.06}, {"measurement": "Top (best-fit value)", "setting": "[1]", "result": 34.53}, {"measurement": "logIC50 (best-fit value)", "setting": "[1]", "result": 1.333}, {"measurement": "SEAP", "setting": "Fig5e, turn OFF CDH-3-TF, 0.001 nM", "result": "33.8408 and 34.0469 and 34.3351"}, {"measurement": "SEAP", "setting": "Fig5e, turn OFF CDH-3-TF, 0.01 nM", "result": "29.7183 and 31.0605 and 34.2655"}, {"measurement": "SEAP", "setting": "Fig5e, turn OFF CDH-3-TF, 0.1 nM", "result": "37.5532 and 35.9265 and 39.0056"}, {"measurement": "SEAP", "setting": "Fig5e, turn OFF CDH-3-TF, 1 nM", "result": "35.3902 and 29.1113 and 33.3839"}, {"measurement": "SEAP", "setting": "Fig5e, turn OFF CDH-3-TF, 10 nM", "result": "29.3646 and 23.7323 and 25.8725"}, {"measurement": "SEAP", "setting": "Fig5e, turn OFF CDH-3-TF, 100 nM", "result": "25.079 and 20.2253 and 26.0755"}, {"measurement": "SEAP", "setting": "Fig5e, turn OFF CDH-3-TF, 1000 nM", "result": "15.9296 and 18.8913 and 19.9566"}, {"measurement": "Bottom (best-fit value)", "setting": "[2]", "result": 53.47}, {"measurement": "Span (best-fit value)", "setting": "[2]", "result": 48.26}, {"measurement": "Top (best-fit value)", "setting": "[2]", "result": 101.7}, {"measurement": "logIC50 (best-fit value)", "setting": "[2]", "result": 0.4646}, {"measurement": "SEAP", "setting": "Fig5f, turn OFF CDH-3-GEMS, 0.001 nM", "result": "113.362 and 89.612 and 99.5052"}, {"measurement": "SEAP", "setting": "Fig5f, turn OFF CDH-3-GEMS, 0.01 nM", "result": "121.028 and 91.7365 and 92.479"}, {"measurement": "SEAP", "setting": "Fig5f, turn OFF CDH-3-GEMS, 0.1 nM", "result": "104.447 and 97.6051 and 99.9447"}, {"measurement": "SEAP", "setting": "Fig5f, turn OFF CDH-3-GEMS, 1 nM", "result": "100.353 and 82.6179 and 86.7829"}, {"measurement": "SEAP", "setting": "Fig5f, turn OFF CDH-3-GEMS, 10 nM", "result": "58.8118 and 64.1853 and 65.9179"}, {"measurement": "SEAP", "setting": "Fig5f, turn OFF CDH-3-GEMS, 100 nM", "result": "45.2413 and 57.2529 and 77.3068"}, {"measurement": "SEAP", "setting": "Fig5f, turn OFF CDH-3-GEMS, 1000 nM", "result": "32.455 and 54.8353 and 61.4484"}, {"measurement": "SEAP, Drug-3 turn OFF CDH-3-TF (with 1 µM Drug-1)", "setting": "Drug-3 0.001 nM with 1 µM Drug-1", "result": "20.0495 U/L and 20.062 U/L and 15.0342 U/L"}, {"measurement": "SEAP, Drug-3 turn OFF CDH-3-TF (with 1 µM Drug-1)", "setting": "Drug-3 0.01 nM with 1 µM Drug-1", "result": "17.0461 U/L and 19.1502 U/L and 14.3967 U/L"}, {"measurement": "SEAP, Drug-3 turn OFF CDH-3-TF (with 1 µM Drug-1)", "setting": "Drug-3 0.1 nM with 1 µM Drug-1", "result": "19.7901 U/L and 16.3361 U/L and 16.2198 U/L"}, {"measurement": "SEAP, Drug-3 turn OFF CDH-3-TF (with 1 µM Drug-1)", "setting": "Drug-3 1 nM with 1 µM Drug-1", "result": "20.2218 U/L and 16.2578 U/L and 17.1111 U/L"}, {"measurement": "SEAP, Drug-3 turn OFF CDH-3-TF (with 1 µM Drug-1)", "setting": "Drug-3 10 nM with 1 µM Drug-1", "result": "16.1201 U/L and 11.9157 U/L and 15.1062 U/L"}, {"measurement": "SEAP, Drug-3 turn OFF CDH-3-TF (with 1 µM Drug-1)", "setting": "Drug-3 100 nM with 1 µM Drug-1", "result": "12.136 U/L and 6.982 U/L and 12.7567 U/L"}, {"measurement": "SEAP, Drug-3 turn OFF CDH-3-TF (with 1 µM Drug-1)", "setting": "Drug-3 1000 nM with 1 µM Drug-1", "result": "12.5352 U/L and 7.0164 U/L and 6.482 U/L"}, {"measurement": "SEAP, Drug-3 turn OFF CDH-3-GEMS (+1 µM Drug-3)", "setting": "Drug-3 0.001 nM + 1 µM Drug-3", "result": "32.0934 U/L and 36.9962 U/L and 29.2725 U/L"}, {"measurement": "SEAP, Drug-3 turn OFF CDH-3-GEMS (+1 µM Drug-3)", "setting": "Drug-3 0.01 nM + 1 µM Drug-3", "result": "28.8246 U/L and 27.8451 U/L and 33.3513 U/L"}, {"measurement": "SEAP, Drug-3 turn OFF CDH-3-GEMS (+1 µM Drug-3)", "setting": "Drug-3 0.1 nM + 1 µM Drug-3", "result": "25.7325 U/L and 31.532 U/L and 32.3299 U/L"}, {"measurement": "SEAP, Drug-3 turn OFF CDH-3-GEMS (+1 µM Drug-3)", "setting": "Drug-3 1 nM + 1 µM Drug-3", "result": "22.1832 U/L and 28.8305 U/L and 36.3315 U/L"}, {"measurement": "SEAP, Drug-3 turn OFF CDH-3-GEMS (+1 µM Drug-3)", "setting": "Drug-3 10 nM + 1 µM Drug-3", "result": "20.2059 U/L and 25.0579 U/L and 21.1125 U/L"}, {"measurement": "SEAP, Drug-3 turn OFF CDH-3-GEMS (+1 µM Drug-3)", "setting": "Drug-3 100 nM + 1 µM Drug-3", "result": "19.7003 U/L and 17.1154 U/L and 24.8794 U/L"}, {"measurement": "SEAP, Drug-3 turn OFF CDH-3-GEMS (+1 µM Drug-3)", "setting": "Drug-3 1000 nM + 1 µM Drug-3", "result": "16.9947 U/L and 17.5781 U/L and 20.7969 U/L"}, {"measurement": "pIC50", "setting": "Fig5e SEAP, turn OFF CDH-3-TF, four-parameter fit", "result": 7.67}, {"measurement": "pIC50", "setting": "Fig5f SEAP, turn OFF CDH-3-GEMS, three-parameter fit", "result": 8.54}]}]}
